Source: article PMC7067850, “Identification of highly potent and selective inhibitor, TIPTP, of the p22phox-Rubicon axis as a therapeutic agent for rheumatoid arthritis” (Scientific Reports, 2020)

Key:
[1] = Microsomal stability assay (human liver microsomes); format: in vitro ADME
Method: To human liver microsomes (0.5 mg/mL) were added 0.1 M phosphate buffer (pH 7.4) and tested compounds (1 μM). After incubation at 37 °C for 5 min, NADPH generation system solution was added and incubated at 37 °C for 30 min. To terminate reaction, acetonitrile including internal standard (chloprapamide) was added, and the solution was centrifuged for 5 min (14,000 rpm, 4 °C). The supernatant was then injected into the LC-MS/MS system to analyze the microsomal stability of the tested compound.

[2] = tested on: collagen-induced arthritis; assay: Collagen-induced arthritis (CIA) mouse model; format: in vivo
Method: The collagen-induced arthritis mouse model was established as previously described. Briefly, male DBA/1 J mice (6 − 8-weeks-old) were obtained from Beijing Vital River Laboratory Animal Technology Co., Ltd. (Charles River Laboratories department in Beijing, China), and kept under specific pathogen-free conditions. Chick collagen type II (Chondrex, Redmond, Washington, USA) was dissolved in 0.05 M acetic acid to a concentration of 2 mg/mL and emulsified with a complete Freund’s adjuvant (2 mg/mL M. tuberculosis H37Ra, Chondrex). At the beginning of the experiments (day 0), the mice were immunized with a 0.1 mL emulsion containing 100 μg of collagen at the tail base with a glass syringe and 25-G needles and then administered a booster (on day 21) with the same preparation of collagen and incomplete Freund’s adjuvant (Chondrex).
(§1) Cell culture supernatants, mice sera and synovial fluid were analyzed for cytokine content using the BD OptEIA ELISA set (BD Pharmingen) for the detection of TNF-α, IL-6, IL-1β, and IL-18. All assays were performed as recommended by the manufacturer.
Intracellular ROS levels were measured by flow cytometry from cells cultured in serum-free medium and loaded with the redox-sensitive dye 2 µM dihydroethidium (DHE for O2^−; Calbiochem) or 10 µM 2′,7′-Dichlorofluorescin diacetate (DCFH-DA for H2O2; Calbiochem)[18],[19]. The cells were thoroughly and quickly washed with pulse spin and immediately acquired for analyses in FACSCalibur (BD Biosciences, San Jose, CA). The data were plotted using CellQuest software (BD Biosciences).
Figure 4 TIPTP protects mice from CIA mice. (a) Schematic of the CIA model treated with TIPTP (upper). FACS analysis for superoxide and hydrogen peroxide from synovial fluid containing synoviocytes from CIA (lower). (b) Representative H&E staining of the ankle joints of each group were determined at 4 wks of CIA (left). Clinical arthritis score and swelling of paws (right) from ten mice per group. Scale bars: 500 μm. Serum (c) and Synovial fluid (d) were harvested at 4 wks of CIA and analyzed for cytokines by ELISA. […]
Arthritis mice were evaluated for disease progression three times a week as follows ^1,2. Each limb was scored according to the severity of inflammation, where 0 : no evidence of redness or swelling, 1 : redness and slight swelling confined to the tarsal joints or ankle, 2 : redness and mild swelling extending from the ankle to the tarsal joints, 3 : redness and moderate swelling extending from the ankle to the metatarsal joints, and 4 : severe swelling encompassing the ankle, foot, and digits, or ankylosis of the limb. […]

NLRP3 inflammasome = NLRP3 inflammasome activation in LPS/ATP-treated BMDMs (immunoblot, ELISA); format: cell-based, mouse; details: NLRP3 inflammasome-activating stimuli (Fig. 3e, 3f)
Method: For immunoblotting, polypeptides were resolved by SDS-polyacrylamide gel electrophoresis and transferred to a PVDF membrane (Bio-Rad). […] Antibody binding was visualized by chemiluminescence (ECL; Millipore) and detected by a Vilber chemiluminescence analyzer (Fusion SL 3; Vilber Lourmat).
as §1
Figure 3 TIPTP robustly suppresses LPS/ATP-mediated Rubicon-p22phox interaction and ROS-mediated inflammation. (a) Structure of the TIPTP. (b) MTT assay for cell viability. BMDMs were incubated with TIPTP for the indicated times at the indicated TIPTP concentrations (upper). WCLs were used for IB with α22phox, αRubicon, or αActin (lower). (c–f) LPS (100 ng/ml)-primed BMDMs were treated with compounds for 1 h, and then activated with ATP (1 mM) for 30 min. (c) NADPH oxidase activity. (d) FACS analysis for superoxide and hydrogen peroxide (upper). Quantitative analysis of mean fluorescence intensities of ROS (lower). (e) BMDMs were incubated with increasing concentrations of compound 1 and TIPTP (com 2) (***). IP with αRubicon, followed by IB with αp22phox, αBeclin-1, αUVRAG, αRubicon. […] (f) Culture supernatants were harvested and analyzed for cytokines by ELISA. […]

With `C[C@@H](Oc1cccc(-n2cc3c(n2)CCCC3)c1)C(=O)Nc1nnc(C(F)(F)F)s1` [TIPTP, (R)-2-(3-(4,5,6,7-tetrahydro-2H-indazol-2-yl)phenoxy)-N-(5-(trifluoromethyl)-1,3,4-thiadiazol-2-yl)propanamide] the “metabolism in human hepatic microsomes” value ([1]; in words) was “easily metabolized”, the remaining at 0.5 h, 1 μM ([1]; pH 7.4, human liver microsomes 0.5 mg/mL, 1 μM, 30 min, read-out: Human liver microsomal stability (% remaining after 30 min)) was 4.4% and the “severity of RA (clinical parameters, paw thickness, histology) vs vehicle-treated CIA mice” value ([2]; CIA mice (Fig. 4b, Supplemental Fig. 6a)) was “markedly lower”. The “serum and synovial fluid concentrations of TNF-α, IL-6, IL-1β, and IL-18” value ([2]; CIA mice, 4 wks, ELISA (Fig. 4c,d)) was “significantly attenuated”, the “production of ROS by synovial tissues” value ([2]; CIA mice, dose-dependent (Fig. 4a)) was “significantly attenuated” and the “binding of p22phox with Rubicon protein in synoviocytes” value ([2]; synoviocytes from CIA mice, co-IP (Fig. 4e)) was “markedly decreased”. The “caspase-1 activation, and IL-1β and IL-18 maturation” value (NLRP3 inflammasome) was “significantly decreased”.
